According to patent US20160271028A1, “NOVEL USE OF PANDURATIN DERIVATIVES OR EXTRACT OF KAEMPFERIA PANDURATA COMPRISING THE SAME” (Newtree Co., Ltd., priority 2007, published 2016):

Legend:
[1] = test system: fibroblasts; test: MTT assay, cell proliferation of fibroblasts; format: cell-based
Protocol: MTT assay [3-(4,5-dimethylthiazol-2-yl)-2,5-diphenyltetrazolium bromide reduction method] was performed on fibroblasts to evaluate cell proliferation of the panduratin derivatives prepared in Examples 2 through 4. Epigallocatechin-3-O-gallate (EGCG), which is known to have skin wrinkle improvement effect, was selected as control substance.

[2] = test system: procollagen; test: Procollagen synthesis in fibroblasts by Western blotting and RT-PCR; format: cell-based; conditions: for expression of procollagen mRNAs: RT-PCR; for expression of procollagen proteins: Western blotting
Protocol: (§1) MMP-1 inhibition activity and procollagen synthesis promotion effect of the Kaempferia pandurata ethanol extract prepared in Example 1 were measured by Western blotting and reverse transcriptase-polymerase chain reaction (RT-PCR).
(§2) Specifically, proteins were extracted from cultured fibroblasts and quantitated using a protein assay reagent (Bio-Rad Laboratories Inc., Hercules, Calif., USA). For Western blotting, the proteins were heated for 3 minutes and, after cooling, transferred to a nitrocellulose membrane (Amersham International, Little Chalfont, England) through electrophoresis in 10% SDS-PAGE. The membrane was saturated with 5% skim milk in TBST (10 mM Tris, pH 7.5, 100 mM NaCl, 0.1% Tween 20). After blotting for 2 hours using primary antibodies (diluted to 1:1000), followed by washing with TBST, blotting was performed for 2 hours using secondary antibodies (diluted to 1:2000). After washing with TBST for 3 times, the blotted antibodies were analyzed using an ECL detection system (Amersham International, Little Chalfont, England).
(§3) For RT-PCR, RNAs were isolated from fibroblasts using TRIZOL (Invitrogen, USA). The isolated RNAs were quantitated using MMP-1 and procollagen primers and Taq polymerase. Specifically, RT-PCR was carried out using MMP-1 primer for 25 cycles, each cycle consisting of 30 seconds at 94° C., 1 minute at 50° C. and 1 minute at 72° C. And RT-PCR was carried out using procollagen primer for 28 cycles, each cycle consisting of 30 seconds at 94° C., 1 minute at 60° C. and 1 minute at 72° C. Then, after electrophoresis using 1% agarose gel, expression of mRNA for MMP-1 and procollagen was analyzed through ethidium bromide (EtBr) illumination.
(§4) MMP-1 inhibition activity and procollagen synthesis promotion effect of the panduratin derivatives prepared in Examples 2 through 4 were measured by Western blotting and RT-PCR in the same manner as Test Example 2-1.

[3] = test system: MMP-1; test: MMP-1 expression in fibroblasts by Western blotting and RT-PCR; format: cell-based; conditions: for expression of MMP-1 mRNAs: RT-PCR; for expression of MMP-1 proteins: Western blotting; for MMP-1 inhibition and procollagen promotion activity compared with the control substance EGCG: Western blotting and RT-PCR, covers MMP-1 and procollagen
Protocol: as §1, §2, §3, §4

[4] = test system: hairless mice (Hos: HR-1); test: Wrinkle improvement in UV-exposed hairless mice, application on skin; format: in vivo
Protocol: Forty eight 6-week-old female hairless mice (Hos: HR-1) were accustomed for a week and randomly divided into 6 groups, 8 per each. The hairless mice (Hos:HR-1) were exposed to UV for 8 weeks. UV irradiation was carried out 3 times a week, from 1 MED (1 MED=50 mJ/cm^2) to 4 MED, until the end of the test. The 6 test groups were: non UV-treated group, UV-treated group, UV- and Kaempferia pandurata ethanol extract (0.1%, 0.5%)-treated group, and UV- and panduratin A (1 mM, 5 mM)-treated group. Each sample was dissolved in a mixture solvent of ethanol and polyethylene glycol (7:3, v/v) and 50 μL was applied on the back of the mice every day for 8 weeks. For the non UV-treated group and the UV-treated group, 50 μL of a mixture of ethanol and polyethylene glycol (7:3, v/v) was applied.
In order to investigate wrinkle prevention effect, skin replicas were taken using silicone polymer (SILFLO Impression Material, Flexico, England). The image files of the skin replicas were subjected to wrinkle evaluation using the computer image analysis software Skin Visiometer SV 600 (Courage+Khazaha Electronic, Kln, Germany) Rt, Rm, Rz and Ra values (Rt: the distance from the highest and lowest portions on the skin surface, Rm: the maximum Rt value of 5 measurements, Rz: the mean Rt value of 5 measurements, Ra: the arithmetic mean surface roughness) were determined.

[5] = test system: c-Jun; test: c-Jun activity in UV-exposed fibroblasts, Western blotting; format: cell-based, Human
Protocol: (§5) Human skin fibroblasts (CCD-986sk, ATCC, Manassas, Va., USA) were cultured in DMEM (Gibco, Grand Island, N.Y., USA). The fibroblasts were cultured on a 10 cm Petri dish (SPL, Seoul, Korea) to a concentration of 80% and further cultured for 24 hours in serum-free culture medium. Then, the cells were cultured for 24 hours in serum-free DMEM containing the panduratin A of Example 2. After replacing the culture medium with 5 mL of phosphate-buffered saline (PBS), the cells were exposed to UV (20 mJ/cm^2). Cells that were not exposed to UV were used as negative control group, and cells treated with EGCG were used as positive control group.
(§6) The fibroblasts were lysed in RIPA buffer (Sigma-Aldrich Co., St. Louis, Mo., USA) and proteins were quantitated using a protein assay reagent (Bio-Rad Laboratories Inc., Hercules, Calif., USA). For Western blotting, the proteins were heated for 3 minutes and, after cooling, transferred to a nitrocellulose membrane (Amersham International, Little Chalfont, England) through electrophoresis in 10% SDS-PAGE. The membrane was saturated with 5% skim milk in TBST (10 mM Tris, pH 7.5, 100 mM NaCl, 0.1% Tween 20). […] After washing with TBST for 3 times, the blotted antibodies were analyzed using an ECL detection system (Amersham International, Little Chalfont, England). The detection level was measured using the software RFLPscan version 2.1. […]

[6] = test system: c-Fos; test: c-Fos activity in UV-exposed fibroblasts, Western blotting; format: cell-based, Human
Protocol: as §5, §6

[7] = test system: Jun-N-terminal kinase (JNK); test: UV-induced activation (phosphorylation) of JNK in fibroblasts, Western blotting; format: cell-based, Human; conditions: CCD-986sk fibroblasts, UV 20 mJ/cm^2, 24 h pretreatment
Protocol: as §5
(§7) The fibroblasts were lysed in RIPA buffer (Sigma-Aldrich Co., St. Louis, Mo., USA) and proteins were quantitated using a protein assay reagent (Bio-Rad Laboratories Inc., Hercules, Calif., USA). […] After washing with TBST for 3 times, the blotted antibodies were analyzed using an ECL detection system (Amersham International, Little Chalfont, England). The detection level was measured using the software RFLPscan version 2.1.
(§8) Through this procedure, the change of activity of extracellular-regulated protein kinase (ERK), Jun-N-terminal kinase (JNK) and p38 kinase, which belong to the MAPKs, was measured.

[8] = test system: p38 kinase; test: UV-induced activation (phosphorylation) of p38 kinase in fibroblasts, Western blotting; format: cell-based, Human; conditions: CCD-986sk fibroblasts, UV 20 mJ/cm^2, 24 h pretreatment
Protocol: as §5, §7, §8

[9] = test system: AP-1; test: Electrophoretic mobility shift assay (EMSA), DNA binding activity of AP-1; format: cell-based, Human; conditions: nuclear proteins of UV-exposed fibroblasts
Protocol: as §5
Electrophoretic mobility shift assay (EMSA) was performed to measure the DNA binding activity of AP-1. Specifically, the fibroblasts, which were cultured in Test Example 3-1, to which panduratin A was added and which were exposed to UV, were washed with PBS and collected. […] Gel shift assay was carried out using quantitated nuclear proteins according to the manufacturer's instructions (Gel Shift Kit System; Panomics, Fremont, Calif., USA). Then, the detected proteins were analyzed with an ECL detection system (Amersham International, Little Chalfont, England) and the detection level was measured using the software RFLPscan version 2.1.
DNA binding activity of AP-1 was determined through this procedure.

[10] = test system: extracellular-regulated protein kinase (ERK); test: UV-induced activation (phosphorylation) of ERK in fibroblasts, Western blotting; format: cell-based, Human; conditions: CCD-986sk fibroblasts, UV 20 mJ/cm^2, 24 h pretreatment
Protocol: as §5, §7, §8

[11] = application on skin, 8 weeks, p<0.05

| Compound | Proliferation effect (%) ([1]; 0.001 μM) | Proliferation effect (%) ([1]; 0.01 μM) | Proliferation effect (%) ([1]; 0.1 μM) | Proliferation effect (%) ([1]; 1 μM) | Proliferation effect (%) ([1]; 10 μM) | Proliferation effect (%) ([1]; 50 μM) | expression of procollagen mRNAs [2] | expression of procollagen proteins [2] | expression of MMP-1 mRNAs [3] | expression of MMP-1 proteins [3] | MMP-1 inhibition and procollagen promotion activity compared with the control substance EGCG [3] | also measured |
| --- | --- | --- | --- | --- | --- | --- | --- | --- | --- | --- | --- | --- |
| CC(C)=CC[C@@H]1C(C)=CC[C@@H](c2ccccc2)[C@@H]1C(=O)c1c(O)cc(O)cc1O [4-Hydroxypanduratin A, 4-hydroxypanduratin A] | 101% | 102% | 109% | 119% | 121% | 128% | increased in a concentration-dependent manner | increased in a concentration-dependent manner | decrease of MMP-1 proteins and mRNAs in a concentration-dependent manner | decrease of MMP-1 proteins and mRNAs in a concentration-dependent manner | better activity than the control substance EGCG |  |
| COc1cc(O)c(C(=O)[C@@H]2[C@H](CC=C(C)C)C(C)=CC[C@H]2c2ccccc2)c(O)c1 [Panduratin A, panduratin A] | 103% | 104% | 111% | 120% | 126% | 131% | increased in a concentration-dependent manner | increased in a concentration-dependent manner | decrease of MMP-1 proteins and mRNAs in a concentration-dependent manner | decrease of MMP-1 proteins and mRNAs in a concentration-dependent manner | better activity than the control substance EGCG | wrinkling (skin replicas) as compared to the UV-treated group ([4]; 50 μL on the back daily for 8 weeks, extract 0.1% and 0.5%, panduratin A 1 mM and 5 mM): remarkably decreased wrinkling; Ra value (arithmetic mean surface roughness) [4, 11]: significantly decreased; Rm value (maximum Rt value of 5 measurements) [4, 11]: significantly decreased; Rt value (distance from the highest and lowest portions on the skin surface) [4, 11]: significantly decreased; Rz value (mean Rt value of 5 measurements) [4, 11]: significantly decreased; c-Jun activity [5]: inhibited c-Jun and c-Fos activity in a concentration-dependent manner; c-Fos activity [6]: inhibited c-Jun and c-Fos activity in a concentration-dependent manner; activation of JNK [7]: suppressed in a concentration-dependent manner; activation of p38 kinase [8]: suppressed in a concentration-dependent manner; binding of AP-1 to DNA [9]: inhibited binding of AP-1 to DNA in a concentration-dependent manner; activation of ERK [10]: suppressed in a concentration-dependent manner |
| Epigallocatechin-3-O-gallate [EGCG, reference compound] | 102% | 104% | 107% | 119% | 120% | 126% |  |  |  |  |  |  |
| COc1cc(O)cc(O)c1C(=O)[C@@H]1[C@H](CC=C(C)C)C(C)=CC[C@H]1c1ccccc1 [Isopanduratin A, isopanduratin A] | 102% | 102% | 110% | 120% | 124% | 130% | increased in a concentration-dependent manner | increased in a concentration-dependent manner | decrease of MMP-1 proteins and mRNAs in a concentration-dependent manner | decrease of MMP-1 proteins and mRNAs in a concentration-dependent manner | better activity than the control substance EGCG |  |
